Assay results as given in the CheMixHub ionic liquid set.

Experiment: xn = mol fraction of the nth substance listed

CC(=O)c1ccccc1 + CCCC[n+]1ccn(C)c1.F[B-](F)(F)F
viscosity [mPa·s], 100 kPa
Settings	293.15 K	303.15 K	313.15 K	323.15 K	333.15 K
x1 = 0.0513	79	50	30.5	20.4	12.9
x1 = 0.1001	56	38.6	21.6	15.4	11.5
x1 = 0.2046	43.6	30.8	19	13.7	10.3
x1 = 0.306	42.4	28.6	16.9	12.2	9.2
x1 = 0.3976	41.7	25.9	11.8	9.7	6.7
x1 = 0.5064	34.4	21.3	10.8	7.6	6.2
x1 = 0.6079	29.5	16.9	9.8	6.5	5.7
x1 = 0.7065	26	13.7	8.3	5.4	–
x1 = 0.8054	22.3	11.7	7.1	4.79	–
x1 = 0.9026	11.8	8	5.7	3.81	3.23
x1 = 0.9516	7	5	3.65	2.8	2.22
x1 = 1	1.91	1.65	1.37	1.17	1.02

CCCC[n+]1ccn(C)c1.F[P-](F)(F)(F)(F)F + O
Settings	electrical conductivity [S/m]	viscosity [mPa·s]
293.15 K, 100 kPa, x1 = 0.0001838	–	1.011
293.15 K, 100 kPa, x1 = 0.0005385	–	1.025
293.15 K, 100 kPa, x1 = 0.0008966	–	1.038
293.15 K, 100 kPa, x1 = 0.001262	–	1.041
298.15 K, 100 kPa, x1 = 0.0001838	–	0.905
298.15 K, 100 kPa, x1 = 0.0005385	–	0.916
298.15 K, 100 kPa, x1 = 0.0008966	–	0.922
298.15 K, 100 kPa, x1 = 0.001262	–	0.932
298.15 K, 101 kPa, x1 = 0.00129	–	0.929
298.15 K, 101 kPa, x2 = 0	0.157	260
298.15 K, 101 kPa, x2 = 0.0518	0.197	200
298.15 K, 101 kPa, x2 = 0.0985	0.235	154
298.15 K, 101 kPa, x2 = 0.1409	0.281	127
298.15 K, 101 kPa, x2 = 0.1794	0.334	109
298.15 K, 101 kPa, x2 = 0.2146	0.383	92
303.15 K, 100 kPa, x1 = 0.0001838	–	0.821
303.15 K, 100 kPa, x1 = 0.0005385	–	0.826
303.15 K, 100 kPa, x1 = 0.001262	–	0.843
308.15 K, 100 kPa, x1 = 0.0001838	–	0.742
308.15 K, 100 kPa, x1 = 0.0005385	–	0.744
308.15 K, 100 kPa, x1 = 0.0008966	–	0.75
308.15 K, 100 kPa, x1 = 0.001262	–	0.761
313.15 K, 100 kPa, x1 = 0.0001838	–	0.661
313.15 K, 100 kPa, x1 = 0.0005385	–	0.674
313.15 K, 100 kPa, x1 = 0.0008966	–	0.677
313.15 K, 100 kPa, x1 = 0.001262	–	0.683

101 kPa, frequency 6e-05 MHz
Settings	electrical conductivity [S/m]
293.2 K, x2 = 0.1	0.199
298.2 K, x2 = 0.05	0.231
298.2 K, x2 = 0.15	0.361
308.2 K, x2 = 0.1	0.401
308.2 K, x2 = 0.2	0.546
313.2 K, x2 = 0.15	0.561
318.2 K, x2 = 0.05	0.491
318.2 K, x2 = 0.2	0.775
323.2 K, x2 = 0.1	0.678
333.2 K, x2 = 0.2	1.06
343.2 K, x2 = 0.15	1.06
353.2 K, x2 = 0.15	1.405
353.2 K, x2 = 0.2	1.621

CC#N + CCCC[n+]1ccn(C)c1.[Cl-]
Settings	viscosity [mPa·s]
308.15 K, 101 kPa, x1 = 1	0.31

CCCC[n+]1ccn(C)c1.F[P-](F)(F)(F)(F)F + OCCOCCOCCOCCO
Settings	viscosity [mPa·s]
298.15 K, 101 kPa, x2 = 0	254

CCCCCCCCCCCCCCCCCC[n+]1ccn(C)c1.O=S(=O)([N-]S(=O)(=O)C(F)(F)F)C(F)(F)F + CCCCCCCCCCCCCCCCn1cc[n+](C)c1.O=S(=O)([N-]S(=O)(=O)C(F)(F)F)C(F)(F)F
Settings	viscosity [mPa·s]
323 K, 101 kPa, x2 = 0.621	89.5

CCCC[n+]1ccn(C)c1.F[P-](F)(F)(F)(F)F + NCCO
101 kPa
Settings	electrical conductivity [S/m]	viscosity [mPa·s]
288.15 K, x2 = 0.8022	0.1847	45
288.15 K, x2 = 0.9028	0.1368	36
293.15 K, x2 = 0.3052	0.222	103
293.15 K, x2 = 0.387	0.236	–
293.15 K, x2 = 0.5871	0.268	–
293.15 K, x2 = 0.9592	0.1028	–
298.15 K, x2 = 0	0.1851	182
298.15 K, x2 = 0.2113	0.256	92
298.15 K, x2 = 0.3052	0.292	76
298.15 K, x2 = 0.5352	0.337	–
298.15 K, x2 = 0.8022	0.313	26
303.15 K, x2 = 0.6984	0.434	26
308.15 K, x2 = 0.387	0.506	–
308.15 K, x2 = 0.4282	0.511	35
308.15 K, x2 = 0.4761	0.541	–
313.15 K, x2 = 0.3052	0.602	35
313.15 K, x2 = 0.4761	0.669	–
313.15 K, x2 = 0.5352	0.679	–
313.15 K, x2 = 0.9592	0.25	–
318.15 K, x2 = 0.3052	0.733	28
318.15 K, x2 = 0.4282	0.773	22.1
318.15 K, x2 = 0.4918	0.796	19.5
323.15 K, x2 = 0	0.504	48
323.15 K, x2 = 0.3052	0.875	23.1
323.15 K, x2 = 0.4761	0.967	–
323.15 K, x2 = 0.5352	0.977	–

CC#N + CC[n+]1ccn(C)c1.F[B-](F)(F)F
viscosity [mPa·s]
Settings	303.15 K	313.15 K	323.15 K	333.15 K
100 kPa, x1 = 1	0.354	–	–	–
101 kPa, x2 = 0	0.326	0.297	0.272	0.249

CC[N+](CC)(CC)CC.F[B-](F)(F)F + CC1COC(=O)O1
101 kPa
Settings	viscosity [mPa·s]
283.15 K, x1 = 0.001044	3.574
283.15 K, x1 = 0.001302	3.581
283.15 K, x1 = 0.001888	3.591
283.15 K, x1 = 0.003069	3.625
283.15 K, x1 = 0.003925	3.642
283.15 K, x1 = 0.005619	3.663
283.15 K, x1 = 0.007445	3.702
283.15 K, x1 = 0.009039	3.739
283.15 K, x1 = 0.01054	3.769
283.15 K, x1 = 0.01391	3.835
283.15 K, x2 = 0.9206	5.439
283.15 K, x2 = 0.9274	5.243
283.15 K, x2 = 0.9419	4.842
283.15 K, x2 = 0.9434	4.813
283.15 K, x2 = 0.9551	4.515
283.15 K, x2 = 0.9624	4.356
283.15 K, x2 = 0.9701	4.177
298.15 K, x1 = 0.001682	2.557
298.15 K, x1 = 0.003455	2.58
298.15 K, x1 = 0.004813	2.598
298.15 K, x1 = 0.006017	2.613
298.15 K, x1 = 0.007139	2.628
298.15 K, x1 = 0.008167	2.641
298.15 K, x1 = 0.009079	2.657
298.15 K, x1 = 0.01102	2.68
298.15 K, x1 = 0.01252	2.701
298.15 K, x1 = 0.01813	2.774
298.15 K, x2 = 0.9206	3.716
298.15 K, x2 = 0.9283	3.58
298.15 K, x2 = 0.9528	3.189
298.15 K, x2 = 0.971	2.924
308.15 K, x1 = 0.001119	2.101
308.15 K, x1 = 0.003553	2.127
308.15 K, x1 = 0.005754	2.15
308.15 K, x1 = 0.006805	2.161
308.15 K, x1 = 0.007615	2.17
308.15 K, x1 = 0.008953	2.182
308.15 K, x1 = 0.01146	2.209
308.15 K, x1 = 0.01324	2.228
308.15 K, x2 = 0.9174	3.043
308.15 K, x2 = 0.9215	2.977
308.15 K, x2 = 0.9382	2.775
308.15 K, x2 = 0.9417	2.728
308.15 K, x2 = 0.9539	2.586
308.15 K, x2 = 0.9711	2.396
308.15 K, x2 = 0.9798	2.303
313.15 K, x1 = 0.00395	1.953
313.15 K, x1 = 0.004693	1.963
313.15 K, x1 = 0.005951	1.972
313.15 K, x1 = 0.00774	1.988
313.15 K, x1 = 0.009433	2.003
313.15 K, x1 = 0.01082	2.018
313.15 K, x2 = 0.9272	2.638
313.15 K, x2 = 0.9371	2.531
313.15 K, x2 = 0.9469	2.429
313.15 K, x2 = 0.9574	2.325
313.15 K, x2 = 0.9712	2.185
313.15 K, x2 = 0.9797	2.106

CN1CCCC1=O + CCCCCC[n+]1ccn(C)c1.N#C[S-]
101 kPa, x2 = 0
Settings	viscosity [mPa·s]
288.15 K	2.133
298.15 K	1.791
308.15 K	1.548
318.15 K	1.312

CC#N + CCCC[n+]1ccn(C)c1.F[B-](F)(F)F
Settings	electrical conductivity, 298.15 K [S/m]	viscosity, 298.15 K [mPa·s]	viscosity, 333.15 K [mPa·s]
100 kPa, x2 = 0	0.0002	0.37	–
101 kPa, x1 = 1	–	–	0.257

CCCCCCO + CCCC[n+]1ccn(C)c1.N#C[S-]
101 kPa, x1 = 1
Settings	viscosity [mPa·s]
308.15 K	3.33
338.15 K	1.57

CCCC[n+]1ccn(C)c1.O=S(=O)([N-]S(=O)(=O)C(F)(F)F)C(F)(F)F + O=C1CCCO1
100 kPa, x2 = 0
Settings	electrical conductivity [S/m]	viscosity [mPa·s]
298.15 K	0.4	50
303.15 K	0.472	41.24

Cn1cc[nH+]c1.[Cl-] + O
viscosity [mPa·s], 100 kPa
Settings	x1 = 9.081e-05	x1 = 0.000182	x1 = 0.0003637	x1 = 0.0005491	x1 = 0.0007277	x1 = 0.0008883	x1 = 0.001091	x1 = 0.001364	x1 = 0.00178
278.15 K	1.521	1.523	1.525	1.528	1.53	1.532	1.535	1.539	1.543
283.15 K	1.308	1.309	1.311	1.313	1.314	1.316	1.319	1.32	1.323
288.15 K	1.139	1.141	1.142	1.144	1.145	1.146	1.149	1.151	1.153
293.15 K	1.003	1.004	1.005	1.007	1.009	1.01	1.013	1.014	1.018
298.15 K	0.89	0.891	0.892	0.894	0.896	0.897	0.899	0.901	0.904
303.15 K	0.798	0.799	0.8	0.801	0.803	0.804	0.805	0.806	0.808
308.15 K	0.719	0.72	0.721	0.722	0.723	0.724	0.725	0.727	0.728
313.15 K	0.652	0.653	0.654	0.655	0.656	0.657	0.658	0.659	0.662

CCCC[n+]1ccccc1.O=S(=O)([N-]S(=O)(=O)C(F)(F)F)C(F)(F)F + Cc1ccccc1
100 kPa
Settings	viscosity [mPa·s]
293.15 K, x2 = 0.3972	22.63
293.15 K, x2 = 0.6068	10
298.15 K, x2 = 0	52.9
298.15 K, x2 = 0.5025	13.64
303.15 K, x2 = 0.2939	21.68
308.15 K, x2 = 0.3972	14.21
308.15 K, x2 = 0.5025	10.54
313.15 K, x2 = 0.3972	12.3
313.15 K, x2 = 0.6068	6.62

CCCC[n+]1ccn(C)c1.O=S(=O)([N-]S(=O)(=O)C(F)(F)F)C(F)(F)F + O=C1CCCCCO1
100 kPa, frequency 0.01 MHz, x1 = 1
Settings	electrical conductivity [S/m]
293.15 K	0.337
298.15 K	0.4
303.15 K	0.472
308.15 K	0.552
313.15 K	0.64
318.15 K	0.733
323.15 K	0.835
